# Experimental data as given in patent publication EP4273147A1, “SUBSTITUTED SPIROLACTAMS, SALTS THEREOF AND THEIR USE AS HERBICIDALLY ACTIVE SUBSTANCES” (Bayer Aktiengesellschaft, priority 2022, dated 2023).
# Columns and labels:
# ABUTH [1] = test: Herbicidal pre-emergence action (Table A1); assay type: in vivo, Abutilon theophrasti; conditions: visual grading after ca. 3 weeks vs untreated controls (100% = plants have died off, 0% = as control plants)
# Method in brief: (§1)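 For this pre-emergence setup, sandy loam pots received seeds of one monocot and one dicot weed species each. The seeds were then covered with soil.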
# ECHCG [2] = test: Herbicidal pre-emergence action (Table A2); assay type: in vivo, Echinochloa crus-galli; conditions: application rate 320 g/ha; visual grading after ca. 3 weeks
# Method in brief: as §1
# LOLRI [3] = test: Herbicidal pre-emergence action (Table A3); assay type: in vivo, Lolium rigidum; conditions: visual grading after ca. 3 weeks
# Method in brief: as §1
# MATIN [4] = test: Herbicidal pre-emergence action (Table A4); assay type: in vivo, Matricaria inodora; conditions: application rate 320 g/ha; visual grading after ca. 3 weeks
# Method in brief: as §1
# SETVI [5] = test: Herbicidal pre-emergence action (Table A5); assay type: in vivo, Setaria viridis; conditions: application rate 320 g/ha; visual grading after ca. 3 weeks
# Method in brief: as §1
# STEME [6] = test: Herbicidal pre-emergence action (Table A6); assay type: in vivo, Stellaria media; conditions: application rate 320 g/ha; visual grading after ca. 3 weeks
# Method in brief: as §1
# POAAN [7] = test: Herbicidal pre-emergence action (Table A7); assay type: in vivo, Poa annua; conditions: visual grading after ca. 3 weeks
# Method in brief: as §1
# AMARE [8] = test: Herbicidal pre-emergence action (Table A8); assay type: in vivo, Amaranthus retroflexus; conditions: application rate 320 g/ha; visual grading after ca. 3 weeks vs untreated controls (100% = plants have died off, 0% = as control plants)
# Method in brief: as §1
# ALOMY [9] = test: Herbicidal pre-emergence action (Table A9); assay type: in vivo, Alopecurus myosuroides; conditions: application rate 1280 g/ha; visual grading after ca. 3 weeks
# Method in brief: as §1
# KCHSC [10] = test: Herbicidal pre-emergence action (Table A10); assay type: in vivo, Kochia scoparia; conditions: application rate 320 g/ha; visual grading after ca. 3 weeks
# Method in brief: as §1
# VERPE [11] = test: Herbicidal pre-emergence action (Table A11); assay type: in vivo, Veronica persica; conditions: application rate 1280 g/ha; visual grading after ca. 3 weeks
# Method in brief: as §1
# ECHCG [12] = test: Herbicidal post-emergence action (Table B3); assay type: in vivo, Echinochloa crus-galli; conditions: rated visually after about 3 weeks
# Method in brief: (§2)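 Visual rating against untreated plants (0% = as control, 100% = dead) made roughly 3 weeks after application. Weed species were grown in sandy loam pots under greenhouse conditions and sprayed at the one-leaf stage, 2–3 weeks post-sowing.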
# KCHSC [13] = test: Herbicidal post-emergence action (Table B4); assay type: in vivo, Kochia scoparia; conditions: application rate 1280 g/ha; rated visually after about 3 weeks
# Method in brief: as §2
# LOLRI [14] = test: Herbicidal post-emergence action (Table B5); assay type: in vivo, Lolium rigidum; conditions: application rate 1280 g/ha; rated visually after about 3 weeks
# Method in brief: as §2
# MATIN [15] = test: Herbicidal post-emergence action (Table B6); assay type: in vivo, Matricaria inodora; conditions: rated visually after about 3 weeks
# Method in brief: as §2
# POAAN [16] = test: Herbicidal post-emergence action (Table B7); assay type: in vivo, Poa annua
# Method in brief: as §2
# STEME [17] = test: Herbicidal post-emergence action (Table B9); assay type: in vivo, Stellaria media; conditions: application rate 1280 g/ha
# Experimental: (§3) Seeds of mono- and dicotyledonous weed plants were placed in plastic pots in sandy loam soil (doubly sown with in each case one species of mono- or dicotyledonous weed plants per pot), covered with soil and cultivated in a greenhouse under controlled growth conditions. 2 to 3 weeks after sowing, the test plants were treated at the one-leaf stage. […] After the test plants had been kept in the greenhouse under optimum growth conditions for about 3 weeks, the activity of the preparations was rated visually in comparison to untreated controls. For example, 100% activity = the plants have died, 0% activity = like control plants.
# AMARE [18] = test: Herbicidal post-emergence action (Table B11); assay type: in vivo, Amaranthus retroflexus; conditions: application rate 1280 g/ha
# Method in brief: as §2
# ALOMY [19] = test: Herbicidal pre-emergence action, section C (Table C2); assay type: in vivo, Alopecurus myosuroides; conditions: visual grading after ca. 3 weeks
# AMARE [20] = test: Herbicidal pre-emergence action, section C (Table C3); assay type: in vivo, Amaranthus retroflexus; conditions: application rate 320 g/ha; visual grading after ca. 3 weeks
# Excerpt: (§5) Seeds of mono- and dicotyledonous weed plants and crop plants were sown, in plastic or organic planting pots, in sandy loam and covered with soil. The compounds according to the invention, formulated in the form of wettable powders (WP) or as emulsifiable concentrates (EC), were applied to the surface of the covering soil as aqueous suspension or emulsion, with the addition of 0.5% of an additive, at an application rate of 600 1 of water/ha (converted). Following treatment, the pots were placed in a greenhouse and kept under optimum growth conditions for the test plants.
# ECHCG [21] = test: Herbicidal pre-emergence action, section C (Table C6); assay type: in vivo, Echinochloa crus-galli; conditions: visual grading after ca. 3 weeks
# Excerpt: as §5
# LOLRI [22] = test: Herbicidal pre-emergence action, section C (Table C7); assay type: in vivo, Lolium rigidum; conditions: visual grading after ca. 3 weeks
# MATIN [23] = test: Herbicidal pre-emergence action, section C (Table C8); assay type: in vivo, Matricaria inodora; conditions: application rate 320 g/ha; visual grading after ca. 3 weeks
# SETVI [24] = test: Herbicidal pre-emergence action, section C (Table C10); assay type: in vivo, Setaria viridis; conditions: visual grading after ca. 3 weeks
# Excerpt: as §5
# GLXMA [25] = test: Pre-emergence effects on crop plants (Table D4); assay type: in vivo, Glycine max; conditions: crop plant; application rate 80 g/ha; visual grading after ca. 3 weeks
# BRSNW [26] = test: Pre-emergence effects on crop plants (Table D5); assay type: in vivo, Brassica napus; conditions: crop plant; application rate 80 g/ha; visual grading after ca. 3 weeks
# ALOMY [27] = test: Herbicidal post-emergence action, section E (Table E2); assay type: in vivo, Alopecurus myosuroides; conditions: application rate 320 g/ha; assessed visually after ca. 3 weeks
# Excerpt: (§4) 2 to 3 weeks after sowing, the test plants were sprayed in the single-leaf stage.
# ECHCG [28] = test: Herbicidal post-emergence action, section E (Table E5); assay type: in vivo, Echinochloa crus-galli; conditions: application rate 320 g/ha; assessed visually after ca. 3 weeks
# Excerpt: as §4
# SETVI [29] = test: Herbicidal post-emergence action, section E (Table E8); assay type: in vivo, Setaria viridis; conditions: application rate 320 g/ha; assessed visually after ca. 3 weeks
# Excerpt: as §4
# ZEAMX [30] = test: Post-emergence effects on crop plants (Table F1); assay type: in vivo, Zea mays; conditions: application rate 320 g/ha, crop plant ZEAMX
# Excerpt: as §4
# ORYZA [31] = test: Post-emergence effects on crop plants (Table F3); assay type: in vivo, Oryza sativa; conditions: application rate 320 g/ha, crop plant ORYZA
# Excerpt: as §4
# GLXMA [32] = test: Post-emergence effects on crop plants (Table F4); assay type: in vivo, Glycine max; conditions: crop plant GLXMA
# Excerpt: as §4
# BRSNW [33] = test: Post-emergence effects on crop plants (Table F5); assay type: in vivo, Brassica napus; conditions: application rate 320 g/ha, crop plant BRSNW
# Excerpt: as §4
# ORYZA [34] = test: Pre-emergence effects on crop plants (Table D3); conditions: crop plant; application rate 80 g/ha; visual grading after ca. 3 weeks
# DIGSA [35] = test: Herbicidal pre-emergence action (Table A12); assay type: in vivo, Digitaria sanguinalis; conditions: application rate 320 g/ha; visual grading after ca. 3 weeks
# Method in brief: as §1
# ABUTH [36] = test: Herbicidal post-emergence action (Table B1); assay type: in vivo, Abutilon theophrasti; conditions: application rate 320 g/ha; treated at one-leaf stage; rated visually after about 3 weeks vs untreated controls (100% = plants have died, 0% = like control plants)
# Method in brief: as §2
# SETVI [37] = test: Herbicidal post-emergence action (Table B8); assay type: in vivo, Setaria viridis; conditions: application rate 320 g/ha
# Method in brief: as §2
# VERPE [38] = test: Herbicidal post-emergence action (Table B10); assay type: in vivo, Veronica persica; conditions: application rate 1280 g/ha
# Method in brief: as §2
# DIGSA [39] = test: Herbicidal post-emergence action (Table B12); assay type: in vivo, Digitaria sanguinalis; conditions: application rate 1280 g/ha
# Experimental: as §3
# ABUTH [40] = test: Herbicidal pre-emergence action, section C (Table C1); assay type: in vivo, Abutilon theophrasti; conditions: application rate 80 g/ha; visual grading after ca. 3 weeks
# DIGSA [41] = test: Herbicidal pre-emergence action, section C (Table C5); assay type: in vivo, Digitaria sanguinalis; conditions: application rate 80 g/ha; visual grading after ca. 3 weeks
# POLCO = test: Herbicidal pre-emergence action, section C (Table C9); assay type: in vivo, Polygonum convolvulus; conditions: application rate 80 g/ha; visual grading after ca. 3 weeks
# Excerpt: as §5
# VERPE [42] = test: Herbicidal pre-emergence action, section C (Table C11); assay type: in vivo, Veronica persica; conditions: application rate 320 g/ha; visual grading after ca. 3 weeks
# VIOTR = test: Herbicidal pre-emergence action, section C (Table C12); assay type: in vivo, Viola tricolor; conditions: application rate 80 g/ha; visual grading after ca. 3 weeks
# ZEAMX [43] = test: Pre-emergence effects on crop plants (Table D1); assay type: in vivo, Zea mays; conditions: crop plant; application rate 80 g/ha; visual grading after ca. 3 weeks
# TRZAS = test: Post-emergence effects on crop plants (Table F2); assay type: in vivo, Triticum aestivum; conditions: application rate 320 g/ha, crop plant TRZAS
# Excerpt: as §4
compound,measurement,setting,value
O=C1N(Cc2cccs2)CCCC12CCCN(Cc1c(F)cccc1F)C2=O (racemic) [I-011],pre-emergence activity against ABUTH,ABUTH [1]; application rate 1280 g/ha,90%
same,pre-emergence activity against ECHCG,ECHCG [2],100%
same,pre-emergence activity against LOLRI,LOLRI [3]; application rate 1280 g/ha,100%
same,pre-emergence activity against MATIN,MATIN [4],90%
same,pre-emergence activity against SETVI,SETVI [5],100%
same,pre-emergence activity against STEME,STEME [6],90%
same,pre-emergence activity against POAAN,POAAN [7]; application rate 1280 g/ha,100%
same,pre-emergence activity against AMARE,AMARE [8],90%
same,pre-emergence activity against ALOMY,ALOMY [9],90%
same,pre-emergence activity against KCHSC,KCHSC [10],90%
same,pre-emergence activity against VERPE,VERPE [11],90%
same,post-emergence activity against ECHCG,ECHCG [12]; application rate 1280 g/ha,90%
same,post-emergence activity against KCHSC,KCHSC [13],90%
same,post-emergence activity against LOLRI,LOLRI [14],90%
same,post-emergence activity against MATIN,MATIN [15]; application rate 320 g/ha,90%
same,post-emergence activity against POAAN,POAAN [16]; application rate 320 g/ha,100%
same,post-emergence activity against STEME,STEME [17],90%
same,post-emergence activity against AMARE,AMARE [18],90%
same,pre-emergence activity against ALOMY,ALOMY [19]; application rate 320 g/ha,90%
same,pre-emergence activity against AMARE,AMARE [20],90%
same,pre-emergence activity against ECHCG,ECHCG [21]; application rate 320 g/ha,90%
same,pre-emergence activity against LOLRI,LOLRI [22]; application rate 80 g/ha,80%
same,pre-emergence activity against MATIN,MATIN [23],80%
same,pre-emergence activity against SETVI,SETVI [24]; application rate 80 g/ha,100%
same,pre-emergence activity against GLXMA,GLXMA [25],20%
same,pre-emergence activity against BRSNW,BRSNW [26],20%
same,post-emergence activity against ALOMY,ALOMY [27],80%
same,post-emergence activity against ECHCG,ECHCG [28],80%
same,post-emergence activity against SETVI,SETVI [29],80%
same,post-emergence activity against ZEAMX,ZEAMX [30],10%
same,post-emergence activity against ORYZA,ORYZA [31],20%
same,post-emergence activity against GLXMA,GLXMA [32]; application rate 320 g/ha,20%
same,post-emergence activity against BRSNW,BRSNW [33],0%
same,pre-emergence activity against ORYZA,ORYZA [34],10%
O=C1N(Cc2ccccc2F)CCCC12CCN(Cc1cccc(F)c1F)C2=O (racemic) [I-016],pre-emergence activity against ABUTH,ABUTH [1]; application rate 320 g/ha,90%
same,pre-emergence activity against ECHCG,ECHCG [2],100%
same,pre-emergence activity against LOLRI,LOLRI [3]; application rate 320 g/ha,100%
same,pre-emergence activity against MATIN,MATIN [4],90%
same,pre-emergence activity against SETVI,SETVI [5],100%
same,pre-emergence activity against STEME,STEME [6],90%
same,pre-emergence activity against POAAN,POAAN [7]; application rate 320 g/ha,100%
same,pre-emergence activity against AMARE,AMARE [8],90%
same,pre-emergence activity against ALOMY,ALOMY [9],90%
same,pre-emergence activity against KCHSC,KCHSC [10],90%
same,pre-emergence activity against VERPE,VERPE [11],90%
same,pre-emergence activity against DIGSA,DIGSA [35],100%
same,post-emergence activity against ABUTH,ABUTH [36],90%
same,post-emergence activity against ECHCG,ECHCG [12]; application rate 320 g/ha,90%
same,post-emergence activity against KCHSC,KCHSC [13],90%
same,post-emergence activity against MATIN,MATIN [15]; application rate 1280 g/ha,90%
same,post-emergence activity against POAAN,POAAN [16]; application rate 1280 g/ha,90%
same,post-emergence activity against SETVI,SETVI [37],90%
same,post-emergence activity against VERPE,VERPE [38],90%
same,post-emergence activity against AMARE,AMARE [18],90%
same,post-emergence activity against DIGSA,DIGSA [39],90%
same,pre-emergence activity against ABUTH,ABUTH [40],80%
same,pre-emergence activity against ALOMY,ALOMY [19]; application rate 80 g/ha,90%
same,pre-emergence activity against AMARE,AMARE [20],90%
same,pre-emergence activity against DIGSA,DIGSA [41],100%
same,pre-emergence activity against ECHCG,ECHCG [21]; application rate 80 g/ha,100%
same,pre-emergence activity against LOLRI,LOLRI [22]; application rate 320 g/ha,100%
same,pre-emergence activity against MATIN,MATIN [23],90%
same,pre-emergence activity against POLCO,POLCO,90%
same,pre-emergence activity against SETVI,SETVI [24]; application rate 320 g/ha,100%
same,pre-emergence activity against VERPE,VERPE [42],90%
same,pre-emergence activity against VIOTR,VIOTR,90%
same,pre-emergence activity against ZEAMX,ZEAMX [43],0%
same,post-emergence activity against ZEAMX,ZEAMX [30],0%
same,post-emergence activity against TRZAS,TRZAS,0%
same,post-emergence activity against ORYZA,ORYZA [31],0%
same,post-emergence activity against GLXMA,GLXMA [32]; application rate 80 g/ha,0%
same,pre-emergence activity against ORYZA,ORYZA [34],0%
